# The supplement of paper PMC10307832
# Compound: O=C(/C=C/c1ccccc1)NC(NC(=S)Nc1cccc2cccnc12)C(Cl)(Cl)Cl [Salubrinal] + CS(=O)(=O)CCNCc1ccc(-c2ccc3ncnc(Nc4ccc(OCc5cccc(F)c5)c(Cl)c4)c3c2)o1 [Lapatinib] (partner 2 µM)
# Test: relative viability (nuclei count vs DMSO), 5 days (fraction); higher = more cells survive
# Conditions: first compound 0.08 µM
# Outline: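 Values are medians from duplicate plates. Each reflects relative viability, defined as the nuclei count of treated wells over that of vehicle wells. Lung cancer cell lines in 1536-well plates were pin-tool dosed one day after seeding with one drug alone or with a fixed anchor-drug dose plus five library-drug doses (not always all listed) in √10 steps, then fixed, stained and imaged at 4× after 5 days.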
row,Cell Line,relative viability
1,NCI-H2085,0.684
2,Calu-6,1.28
3,HCC-366,1.23
4,NCI-H1666,0.582
5,NCI-H596,1.05
6,LK-2,1.07
7,NCI-H2087,1.04
8,NCI-H358,0.531
9,NCI-H2170,0.275
10,H3255,0.241
11,COR-L23,1.38
12,COR-L 105,0.377
13,IA-LM,0.742
14,LOU-NH91,0.71
15,NCI-H1793,0.947
16,NCI-H2405,1.01

row,Cell Line,relative viability
1,HOP-62,1.06
2,HCC-44,0.91
3,A549,1.08
4,SK-MES-1,0.488
5,LU99A,1.17
6,BEN,0.677
7,HARA,0.709
8,HCC-78,0.4
9,NCI-H322M,0.606
10,LCLC-97TM1,1.03
11,NCI-H2009,0.997
12,A-427,1.09
13,NCI-H661,0.609
14,NCI-H1734,1.11
15,NCI-H460,1.6
16,NCI-H2347,0.736

# Same assay, conditions: first compound 0.253 µM
row,Cell Line,relative viability
1,NCI-H2085,0.793
2,Calu-6,1.03
3,HCC-366,0.796
4,NCI-H1666,0.56
5,NCI-H596,1.02
6,LK-2,0.977
7,NCI-H2087,1.06
8,NCI-H358,0.514
9,NCI-H2170,0.289
10,H3255,0.253
11,COR-L23,0.626
12,COR-L 105,0.317
13,IA-LM,0.536
14,LOU-NH91,0.776
15,NCI-H1793,0.654
16,NCI-H2405,1.03

row,Cell Line,relative viability
1,HOP-62,0.927
2,HCC-44,0.743
3,A549,0.954
4,SK-MES-1,0.405
5,LU99A,1.15
6,BEN,0.732
7,HARA,0.651
8,HCC-78,0.795
9,NCI-H322M,0.589
10,LCLC-97TM1,0.799
11,NCI-H2009,1.02
12,A-427,0.966
13,NCI-H661,0.497
14,NCI-H1734,1.08
15,NCI-H460,0.445
16,NCI-H2347,0.903

# Same assay, conditions: first compound 0.8 µM
row,Cell Line,relative viability
1,NCI-H2085,0.898
2,Calu-6,1.27
3,HCC-366,1.12
4,NCI-H1666,0.767
5,NCI-H596,1.21
6,LK-2,1.16
7,NCI-H2087,1.16
8,NCI-H358,0.365
9,NCI-H2170,0.248
10,H3255,0.191
11,COR-L23,1.37
12,COR-L 105,0.395
13,IA-LM,0.916
14,LOU-NH91,0.776
15,NCI-H1793,0.657
16,NCI-H2405,1.13

row,Cell Line,relative viability
1,HOP-62,1.01
2,HCC-44,1.1
3,A549,1.03
4,SK-MES-1,0.499
5,LU99A,1.13
6,BEN,0.751
7,HARA,0.819
8,HCC-78,1.06
9,NCI-H322M,0.669
10,LCLC-97TM1,0.842
11,NCI-H2009,0.914
12,A-427,1.11
13,NCI-H661,0.248
14,NCI-H1734,1.18
15,NCI-H460,1.76
16,NCI-H2347,0.967

# Same assay, conditions: first compound 2.53 µM
row,Cell Line,relative viability
1,NCI-H2085,0.854
2,Calu-6,1.08
3,HCC-366,1.01
4,NCI-H1666,0.58
5,NCI-H596,1.08
6,LK-2,0.994
7,NCI-H2087,0.93
8,NCI-H358,0.494
9,NCI-H2170,0.271
10,H3255,0.233
11,COR-L23,1
12,COR-L 105,0.389
13,IA-LM,0.856
14,LOU-NH91,0.778
15,NCI-H1793,0.818
16,NCI-H2405,1.07

row,Cell Line,relative viability
1,HOP-62,1.16
2,HCC-44,0.97
3,A549,0.939
4,SK-MES-1,0.42
5,LU99A,0.945
6,BEN,0.767
7,HARA,0.748
8,HCC-78,0.788
9,NCI-H322M,0.657
10,NCI-H2009,0.872
11,A-427,0.961
12,NCI-H661,0.467
13,NCI-H1734,1.05
14,NCI-H460,0.948
15,NCI-H2347,0.923

# Same assay, conditions: first compound 8 µM
row,Cell Line,relative viability
1,NCI-H2085,0.737
2,Calu-6,1.06
3,HCC-366,1.08
4,NCI-H1666,0.691
5,NCI-H596,0.887
6,LK-2,0.85
7,NCI-H2087,1.1
8,NCI-H358,0.47
9,NCI-H2170,0.263
10,H3255,0.226
11,COR-L23,0.539
12,COR-L 105,0.35
13,IA-LM,0.593
14,LOU-NH91,0.752
15,NCI-H1793,0.752
16,NCI-H2405,1.09

row,Cell Line,relative viability
1,HOP-62,0.968
2,HCC-44,0.939
3,A549,0.886
4,SK-MES-1,0.437
5,LU99A,0.594
6,BEN,0.894
7,HARA,0.828
8,HCC-78,0.832
9,NCI-H322M,0.517
10,LCLC-97TM1,0.857
11,NCI-H2009,0.793
12,A-427,1.03
13,NCI-H661,0.412
14,NCI-H1734,1.02
15,NCI-H460,0.75
16,NCI-H2347,0.891
